# Data reported in PMC7281072 (Cancers, 2020).
# How the values were obtained:
# [1] = test system: ERK1,2 phosphorylation; experiment: ERK1/2 phosphorylation ELISA, OVCAR-5 cells; type: cell-based, human; conditions: for Vmax ± SE, pERK 1/2 inhibition: Michaelis Menten model; for IC50: Homo sapiens, read-out: IC50, pERK 1/2 inhibition
# [2] = test system: ERK1,2 phosphorylation; experiment: ERK1/2 phosphorylation ELISA, SK-OV-3 cells; type: cell-based, human; conditions: for Vmax ± SE, pERK 1/2 inhibition: Michaelis Menten model; for IC50: Homo sapiens, read-out: IC50, pERK 1/2 inhibition
# [3] = test system: ERK1,2 phosphorylation; experiment: ERK1/2 phosphorylation ELISA, UWB1.289 cells; type: cell-based, human; conditions: for Vmax ± SE, pERK 1/2 inhibition: Michaelis Menten model; for IC50: Homo sapiens, read-out: IC50, pERK 1/2 inhibition
# [4] = test system: ERK1,2 phosphorylation; experiment: ERK1/2 phosphorylation ELISA, UWB1.289+BRCA1 cells; type: cell-based, human; conditions: for Vmax ± SE, pERK 1/2 inhibition: Michaelis Menten model; for IC50: Homo sapiens, read-out: IC50, pERK 1/2 inhibition
# [5] = test system: AKT1,2 phosphorylation; experiment: AKT phosphorylation ELISA, OVCAR-5 cells; type: cell-based, human; conditions: for Vmax ± SE, pAKT 1/2 inhibition: Michaelis Menten model; for IC50: Homo sapiens, read-out: IC50, pAKT 1/2 inhibition
# [6] = test system: AKT1,2 phosphorylation; experiment: AKT phosphorylation ELISA, OVCAR-3 cells; type: cell-based, human; conditions: for Vmax ± SE, pAKT 1/2 inhibition: Michaelis Menten model; for IC50: Homo sapiens, read-out: IC50, pAKT 1/2 inhibition
# [7] = test system: AKT1,2 phosphorylation; experiment: AKT phosphorylation ELISA, UWB1.289 cells; type: cell-based, human; conditions: for Vmax ± SE, pAKT 1/2 inhibition: Michaelis Menten model; for IC50: Homo sapiens, read-out: IC50, pAKT 1/2 inhibition
# [8] = test system: AKT1,2 phosphorylation; experiment: AKT phosphorylation ELISA, UWB1.289+BRCA1 cells; type: cell-based, human; set-up: Vmax ± SE, pAKT 1/2 inhibition: unit not given beside the values; conditions: for Vmax ± SE, pAKT 1/2 inhibition: Michaelis Menten model; for IC50: Homo sapiens, read-out: IC50, pAKT 1/2 inhibition
# [9] = test system: SKOV-3 human ovarian adenocarcinoma xenograft; set-up: species or system CB17 SCID mice; conditions: mouse, in vivo; on MST (mean survival time): test concentration or dose not given here
smiles,measurement,setting,value
"C[C@]12CC[C@@H]3c4ccc(OC(=O)CCOc5ccc(N(CCCl)CCCl)cc5)cc4CC[C@H]3[C@@H]1CCC(=O)N2 [ENGA-L08E, 12a-methyl-2-oxo-1,2,3,4,4a,4b,5,6,10b,11,12,12a-dodecahydronaphtho[2,1-f]quinolin-8-yl 3-(4-(bis (2-chloroethyl)amino)phenoxy) propanoate]","Vmax ± SE, pERK 1/2 inhibition",[1]; 15 min,63.85 ± 3.62
same,"Vmax ± SE, pERK 1/2 inhibition",[1]; 30 min,67.94 ± 4.54
same,"Vmax ± SE, pERK 1/2 inhibition",[1]; 60 min,69.19 ± 2.95
same,IC50,"[1]; 0.25 h, 15 min",32.4 µM
same,IC50,"[1]; 0.5 h, 30 min",17 µM
same,IC50,"[1]; 1 h, 60 min",10.9 µM
same,"Vmax ± SE, pERK 1/2 inhibition",[2]; 15 min,45.92 ± 2.07
same,"Vmax ± SE, pERK 1/2 inhibition",[2]; 30 min,71.49 ± 0.55
same,"Vmax ± SE, pERK 1/2 inhibition",[2]; 60 min,74.32 ± 0.43
same,IC50,"[2]; 0.25 h, 15 min",> 50 µM
same,IC50,"[2]; 0.5 h, 30 min",11.2 µM
same,IC50,"[2]; 1 h, 60 min",7.67 µM
same,"Vmax ± SE, pERK 1/2 inhibition",[3]; 15 min,73.97 ± 1.64
same,"Vmax ± SE, pERK 1/2 inhibition",[3]; 60 min,88.83 ± 2.13
same,IC50,"[3]; UWB1289, 0.25 h, 15 min",7.02 µM
same,IC50,"[3]; UWB1289, 0.5 h, 30 min",4.25 µM
same,IC50,"[3]; UWB1289, 1 h, 60 min",3.67 µM
same,"Vmax ± SE, pERK 1/2 inhibition",[4]; 15 min,56.97 ± 0.61
same,"Vmax ± SE, pERK 1/2 inhibition",[4]; 30 min,66.56 ± 1.99
same,"Vmax ± SE, pERK 1/2 inhibition",[4]; 60 min,71.72 ± 1.86
same,IC50,"[4]; 0.25 h, 15 min",25 µM
same,IC50,"[4]; 0.5 h, 30 min",10.7 µM
same,IC50,"[4]; 1 h, 60 min",8.56 µM
same,"Vmax ± SE, pAKT 1/2 inhibition",[5]; 15 min,60.45 ± 3.65
same,"Vmax ± SE, pAKT 1/2 inhibition",[5]; 30 min,61.17 ± 0.62
same,"Vmax ± SE, pAKT 1/2 inhibition",[5]; 60 min,61.47 ± 2.03
same,IC50,"[5]; 0.25 h, 15 min",> 50 µM
same,IC50,"[5]; 0.5 h, 30 min",34.2 µM
same,IC50,"[5]; 1 h, 60 min",28.3 µM
same,"Vmax ± SE, pAKT 1/2 inhibition",[6]; 15 min,65.97 ± 1.60
same,"Vmax ± SE, pAKT 1/2 inhibition",[6]; 30 min,75.64 ± 0.99
same,"Vmax ± SE, pAKT 1/2 inhibition",[6]; 60 min,78.39 ± 4.18
same,IC50,"[6]; 0.25 h, 15 min",> 50 µM
same,IC50,"[6]; 0.5 h, 30 min",12.8 µM
same,IC50,"[6]; 1 h, 60 min",14.2 µM
same,"Vmax ± SE, pAKT 1/2 inhibition",[7]; 15 min,63.02 ± 1.33
same,"Vmax ± SE, pAKT 1/2 inhibition",[7]; 30 min,68.23 ± 0.99
same,"Vmax ± SE, pAKT 1/2 inhibition",[7]; 60 min,70.28 ± 2.75
same,IC50,"[7]; UWB1289, 0.25 h, 15 min",14.1 µM
same,IC50,"[7]; UWB1289, 0.5 h, 30 min",8.24 µM
same,IC50,"[7]; UWB1289, 1 h, 60 min",6.6 µM
same,"Vmax ± SE, pAKT 1/2 inhibition",[8]; 15 min,57.59 ± 1.42
same,"Vmax ± SE, pAKT 1/2 inhibition",[8]; 30 min,60.90 ± 3.82
same,"Vmax ± SE, pAKT 1/2 inhibition",[8]; 60 min,63.84 ± 5.49
same,IC50,"[8]; 0.25 h, 15 min",36.2 µM
same,IC50,"[8]; 0.5 h, 30 min",26.6 µM
same,IC50,"[8]; 1 h, 60 min",19.4 µM
same,Median Overall Survival (OS),[9],105 days
same,Progression Free Survival (PFS),[9],13 days
same,Response Rate (RR),[9],100%
same,Cures (mice alive for 120 days after tumor inoculation),[9]; ip,2/5
same,MST (mean survival time),[9]; ip,76.5 ± 3.9 p < 0.01 Days
same,T/C% (mean survival time of treated versus saline controls),[9]; ip,187.9%
